Reference: patent US20120035224A1, “Betulin derived compounds as anti-feedants for plant pests” (priority 2006, published 2012)
Marks after values point to notes of the source that are not given here.

Columns and labels:
Format in all cases: in vivo
[1] = tested on: rapeseed beetles of the genus Phyllotreta spp.; assay: Antifeedant activity for rapeseed beetles on rapeseed seedlings (palatability test); conditions: for prevention of beetle feeding: 100 μg/cm^2, FIG. 1 and table 3; for % Surface area of the leaves eaten: 100 μg/cm^2 in rapeseed oil on rapeseed seedlings, after one week, rapeseed oil=100%
Procedure: Antifeedant activity for rapeseed beetles of the genus Phyllotreta spp. was tested using betulin 3,28-O-isostearylic diester (prepared as described in example 10), 3,28-diacetoxy betulin (prepared in example 15a), and betulin. Test compounds dissolved in 2 ml of rapeseed oil were sprayed on rapeseed seedlings at the cotyledon stage in an amount of 100 μg/cm^2. The plants thus treated were placed in an insect cage, followed by the introduction of the beetles after 24 hours. In the tests, 20 beetles were used per cage, each cage comprising 3 petridishes with seedlings, one control dish and two different test dishes, the number of the cages (=parallel tests) being 5. Pure rapeseed oil was used as the control. The beetles were allowed free access to all plants, and after one week, the test was stopped, the plants were examined, and feeding damages caused by the beetles were evaluated.
Number of the damaged leaves and the degree of damage were evaluated (% leaf surface area fed, palatability assessment).
Betulin 20,29-epoxy-3β,28-diacetate was used as the control compound, prepared as disclosed in J. Arg. Food Chem. 1995, 43, 2513-2516.

[2] = tested on: Deroceras agreste (field snails) and Deroceras reticulatum (false field snails); assay: Effect on feeding behaviour of snails, half-treated leaf discs; conditions: for ranking of snail test results: 100 μg/cm^2; for Percentage of the leaf half treated with the test substance vs. total mass eaten: treated half of leaf disc; for Percentage of the leaf half treated with the test substance vs. total mass eaten / Percentage of the control vs. total mass eaten: 36 hours, 100 μg/cm^2 in acetone; for Percentage of the control vs. total mass eaten: untreated half of leaf disc
Procedure: Deroceras agreste (field snails) and Deroceras reticulatum (false field snails) snails with lengts of about 2 cm, collected from nature, were used in this antifeedant test. Cabbage and lettuce leaves cut into discs with diameters of 4 cm serving as feed plants were placed on petridishes. Half on each leaf disc was treated with the test substance, the other haft serving as the control. One snail was placed on each plate, and only tests where the snail ate the leaf were assayed. The results were recorded at 36 hours after test initiation. Acetone was used as control, while betulin, betulinic acid, betulonic acid and betulin 28-carboxymethoxy mentholester dissolved in aceton served as test substances. The leaves studied were treated with test substances used in amounts of 100 μg/cm^2, The results from this test are presented in the following table 5.

[3] = tested on: strawberry beetles (Galerucella tenella); assay: Palatability and egg laying selection test on strawberry leaves
Procedure: Antifeedant activity of betulin and betulonic acid was tested for strawberry beetles (Galerucella tenella) with adults and larvae using leaves of the plants. The test substances were dissolved in ethanol, and the leaves were treated to achieve a concentration of approx. 100 μg/cm^2 of the test substance. The experiment was carried out as a selection test on a petridisc containing a strawberry leaf having one half treated with the test substance and the other half treated with ethanol only. Two adult strawberry beetles (Galerucella tenella) were placed on the disc (male and female) or two larvae. The number of cavities eaten by the animals were counted daily during four days; simultaneously the number eggs laid by the adults were counted. Both the adults and the larvae had 10 tests. Results from the palatability test and the prevention of egg laying test with strawberry beetles (Galerucella tenella) are shown in the following table 6.

[4] = tested on: cabbage white, Mamestra brassicae larvae; assay: Antifeedant activity on cabbage leaf discs, no-choice test; conditions: for Leaf mass eaten by the larvae vs. control, Time/0 h: 100 μg/cm^2, 0 h after treatment; for Leaf mass eaten by the larvae vs. control, Time/21 h: 100 μg/cm^2, 21 h after treatment; for Leaf mass eaten by the larvae vs. control, Time/43 h: 100 μg/cm^2, 43 h after treatment; for Leaf mass eaten by the larvae vs. control, Time/73 h: 100 μg/cm^2, 73 h after treatment; for antifeedant activity on the larvae: FIG. 2, no-choice test
Procedure: Antifeedant activity for the […], Mamestra brassicae larvae was tested with six compounds derived from betulin. Discs cut from cabbage leaves, having a diameter of 5 cm, were placed on petridishes and treated with the test agents in an amount of 100 μg/cm^2. One small larva was introduced on each plate. Each agent was tested in 10 parallel studies. Cabbage leaf mass remaining on the dish was weighed after 0, 21, 43 and 73 hours after treatment (hat), and leaf mass eaten by the larva was calculated as percentage based on the control.

[5] = tested on: lily beetles (Lilioceris lilii) larvae; assay: No-choice feeding test with larvae on brown lily leaves; conditions: for decrease of feeding of larvae / Percentage of the eaten relative mass of the leaf: larvae; for Percentage of the eaten relative mass of the leaf: no-choice test, approx. 100 μg/cm^2, ethanol control 65.3
Procedure: (§1) Antifeedant activity of betulin and betulonic acid was tested for lily beetles (Lilioceris lilii) with adults and larvae using leaves of brownlily plants. The test substances were dissolved in ethanol, and the leaves were treated to achieve a concentration of approx. 100 μg/cm^2 of the test substance. The experiment was carried out with adults as a selection test on a petridisc containing two leaves cut from a brown lily plant. One was treated with the test substance and the other treated with ethanol only. Two adult lilybeetles (Lilioceris lilii) were placed on the disc (male and female). The leaf mass eaten by the animals was counted daily during four days by weighing the leaves; simultaneously the number eggs laid by the adults were counted. 10 parallel tests were performed. The test with larvae was a no-choise-test, where either a treated or untreated leaf of brownlily and one beetle larvae was placed on each disc. 7 parallel tests were performed. Results from the palatability test and the prevention of egglaying test with adults and larvae of lily beetles (Lilioceris lilii) are shown in the following table 7. […] Betulonic acid decreased very efficiently egglaying of adults on the leaves (more than 90%). Betulonic acid decreased feeding of larvae efficiently (92%), with betulin this was not observed. In a no-choise situation the larvae died on the betulonic acid treated leaves, in other test treatments they grew normally.

[6] = tested on: lily beetles (Lilioceris lilii) adults; assay: Palatability and egg laying selection test with adults on brown lily leaves; conditions: for Percentage of the eaten relative mass of the leaf: selection test, approx. 100 μg/cm^2, four days, ethanol control 76.4
Procedure: as §1

[7] = tested on: cabbage white, Mamestra brassicae larvae; assay: Antifeedant activity on cabbage leaf discs, no-choice test; conditions: FIG. 3, small larvae (12 to 19 mg), weight after 7 hours vs initial weight
[8] = adults, approx. 100 μg/cm^2, four days, ethanol = 100
[9] = larvae, approx. 100 μg/cm^2, four days, ethanol = 100

Row | Compound | % Surface area of the leaves eaten [1] [%] | ranking of snail test results [2] | Percentage of the leaf half treated with the test substance vs. total mass eaten [2] [%] | Percentage of the control vs. total mass eaten [2] [%] | Leaf mass eaten by the larvae vs. control, Time/0 h [4] [%] | Leaf mass eaten by the larvae vs. control, Time/21 h [4] | Leaf mass eaten by the larvae vs. control, Time/43 h [4] | Leaf mass eaten by the larvae vs. control, Time/73 h [4] [%] | also measured
1 | 3,28-O-isostearylic acid diester of betulin [Betulin 3,28-O-isostearylic acid diester] | 64 | – | – | – | – | – | – | – | prevention of beetle feeding [1]: efficiently prevented beetle feeding
2 | C=C(C)[C@@H]1CC[C@]2(C(=O)O)CC[C@]3(C)C(CCC4[C@@]5(C)CCC(=O)C(C)(C)C5CC[C@]43C)C12 (stereo partly drawn) [Betulonic acid, betulonic acid] | – | Best results | 25.8 | 74.2 | 100 | 94% | 95% | 86 | prevention of feeding ([3]; adults): approx. 41%; prevention of laying of eggs on the leaves ([3]; adults): more than 90%; Percentage of the number or eggs laid by the females on the leaves [3, 8]: 8.3%; Percentage of the relative number of eaten cavities [3, 8]: 58.7%; prevention of feeding ([3]; larvae): 82%; Percentage of the relative number of eaten cavities [3, 9]: 17.8%; decrease of feeding of larvae [5]: 92%; Percentage of the eaten relative mass of the leaf [5]: 5.2%; fate of larvae on treated leaves ([5]; no-choice situation): died; decrease of egglaying of adults on the leaves [6]: more than 90%; prevention (decrease) of feeding [6]: approx. 78%; Percentage of the number or eggs laid by the beetles ([6]; approx. 100 μg/cm^2, ethanol control = 100): 8.7%; Percentage of the eaten relative mass of the leaf [6]: 17.0%
3 | C=C(C)[C@@H]1CC[C@]2(COC(C)=O)CC[C@]3(C)C(CCC4[C@@]5(C)CC[C@H](OC(C)=O)C(C)(C)C5CC[C@]43C)C12 (stereo partly drawn) [3,28-diacetoxy betulin] | 96 | – | – | – | – | – | – | – | –
4 | CC(=O)OCC12CCC(C3(C)CO3)C1C1CCC3C4(C)CCC(OC(C)=O)C(C)(C)C4CCC3(C)C1(C)CC2 (stereo not drawn) [Betulin 20,29-epoxy-3β,28-diacetate, reference compound] | 50 | – | – | – | – | – | – | – | –
5 | 3,28-C18 alkylene succinic diester of betulin | – | – | – | – | 100 | 93% | 90% | 77 | –
6 | 28-C18 alkylene succinic ester of betulin | – | – | – | – | 100 | 103* % | 82% | 71 | antifeedant activity on the larvae [4]: clearly had antifeedant activities
7 | C=C(C)[C@@H]1CC[C@]2(C(=O)O)CC[C@]3(C)C(CCC4[C@@]5(C)CC[C@H](O)C(C)(C)C5CC[C@]43C)C12 (stereo partly drawn) [Betulinic acid, betulinic acid] | – | Best results | 37.6 | 62.4 | 100 | 46% | 67% | 80 | antifeedant activity on the larvae [4]: clearly had antifeedant activities; weight development of the larvae [7]: lower than the initial weight
8 | C=C(C)[C@@H]1CC[C@]2(CO)CC[C@]3(C)[C@H](CC[C@@H]4[C@@]5(C)CC[C@H](O)C(C)(C)[C@@H]5CC[C@]43C)[C@@H]12 [Betulin, lup-20(29)-ene-3β,28-diol] | 58 | – | 22.5 | 77.5 | 100 | 101* % | 193* % | 88 | prevention of beetle feeding [1]: efficiently prevented beetle feeding; prevention of feeding ([3]; larvae): 78%; Percentage of the relative number of eaten cavities [3, 9]: 21.9%; decrease of feeding of larvae [5]: not observed; Percentage of the eaten relative mass of the leaf [5]: 64.2%; prevention (decrease) of feeding [6]: approx. 47%; Percentage of the eaten relative mass of the leaf [6]: 40.7%
9 | C=C(C)[C@@H]1CC[C@]2(COC(=O)CO[C@H]3C[C@@H](C)CC[C@@H]3C(C)C)CC[C@]3(C)C(CCC4[C@@]5(C)CC[C@H](O)C(C)(C)C5CC[C@]43C)C12 (stereo partly drawn) [betulin 28-carboxymethoxy menthol ester, 28-carboxymethoxy mentholester of betulin] | – | Best results | 36.6 | 63.4 | 100 | 126* % | 146* % | 94 | –
